# Assays:
# K562 cells = assay: K562 cell proliferation assay (CellTiter-Glo); type: cell-based; settings: Homo sapiens, K562 cell viability, 72 hours, read-out: Cell Line (IC50, nM) K562
# Description: (§1) K562 and HL60 Cell Proliferation Assay
# (§2) K562 and HL60 cells, cultured in Iscove's Modified Dulbecco's Media (IMDM) supplemented with 10% FBS, were harvested at 50-80% confluency and plated at 2,000 cells per well (K562) or 1,500 cells per well (HL60) in 384-well tissue culture plates. A subset of wells contained media only (low control, LC). […] The plates were placed in a 37° C. incubator with 5% CO2 for 72 hours. Cell viability was measured using a CellTiter-Glo luminescent cell viability assay (Promega), which allows for relative quantification of metabolically active cells by luminescence-based measurements of intracellular ATP concentrations. Briefly, plates were removed from the incubator and equilibrated for 15 minutes at room temperature prior to the addition of 40 μL of CellTiter-Glo reagent. Plates were then incubated for 30 minutes at room temperature. Luminescence was measured using an EnSpire plate reader (Perkin Elmer). As noted above, luminescence values from wells with DMSO only or media without cells were used as high and low controls (HC and LC), respectively. Normalized percent viability was calculated as follows: percent viability=100×(Lumsample−LumLC)/(LumHC−LumLC).
# ABL1 = target: T1, ABL1 (Homo sapiens, UniProt P00519); assay: Luminescence-based ABL kinase assay (300 μM ATP), ADP-Glo; type: biochemical
# T1 construct: purchased Carna Biosciences
# Text: Compounds were serially diluted in DMSO. […] Luminescence signal positively correlates with kinase activity.
# ABL1 (T315I) = ABL1 (T315I) (Homo sapiens, UniProt P00519, T315I); assay: as above; type: biochemical
# Description: Kinase activity of ABL1 was measured using the ADP-Glo system (Promega), which measures formation of ADP using a luminescence-based method. Compounds were serially diluted in DMSO. 20 nL of compound or DMSO only (high control, HC) were added to a 384-well plate (OptiPlate-384. PerkinElmer) using an Echo550 liquid handler (Labcyte). 15 μL of kinase solution (10 mM MgCl2, 0.01% Brij-35, 2 mM DTT, 0.05% BSA, 1 mM EGTA, 50 mM HEPES pH 7.5, and 3.325 nM ABL1 [Carna Biosciences]) were added to each well of the 384-well plate containing the compounds. No enzyme control wells were included (low control, LC). The plate was incubated at room temperature for 30 minutes. 5 μL of a second solution containing 10 mM MgCl2, 0.01% Brij-35, 2 mM DTT, 0.05% BSA, 1 mM EGTA, 50 mM HEPES pH 7.5, 6 μM Peptide 2 (Perkin Elmer, Cat No 760346), and 1.2 mM ATP were added to each well to start the kinase reaction. The plate was incubated for 90 minutes at room temperature. 20 μL of ADP-Glo reagent (Promega) were then added to each well and the plate was incubated for 40 minutes at room temperature. 40 μL of kinase detection reagent (Promega) was added to each well and the plate was incubated for an additional 45 minutes at room temperature. During this step, ADP was converted to ATP, a substrate for luciferase, to produce luminescence signal. Luminescence was measured on an Envision plate reader (Perkin Elmer). Luminescence signal positively correlates with kinase activity. The percent kinase activity was calculated as follows: percent kinase activity=100×(Lumsample−LumLC)/(LumHC−LumLC). As noted above, DMSO only and no enzyme wells were used as high and low controls, respectively. IC50 values were calculated using the XLFit software.
# HL60 cells = assay: HL60 cell proliferation assay (CellTiter-Glo); type: cell-based; settings: Homo sapiens, HL-60, HL60 cell viability, 72 hours, read-out: Cell Line (IC50, nM) HL60
# Description: as §1, §2
Compound,IC50 (K562 cells),IC50 (ABL1),IC50 (ABL1 (T315I)),IC50 (HL60 cells)
"CCN1CCN(CCNC(=O)Nc2cc3cc(-c4c(OC)cccc4OC)n(C)c3cn2)CC1 [Compound 87, 1-(2-(2,6-dimethoxyphenyl)-1-methyl-1H-pyrrolo[2,3-c]pyridin-5-yl)-3-(2-(4-ethylpiperazin-1-yl)ethyl)urea]",78.5 nM,35 nM,76.6 nM,> 10000 nM
"COc1ccccc1-c1cc2cc(NC(=O)NCCN3CCOCC3)ncc2n1C [Compound 80, 1-(2-(2-methoxyphenyl)-1-methyl-1H-pyrrolo[2,3-c]pyridin-5-yl)-3-(2-morpholinoethyl)urea]",1610 nM,155 nM,193 nM,> 10000 nM
"CCN1CCN(CCNC(=O)Nc2cc3cc(-c4c(OC)ccnc4OC)n(C)c3cn2)CC1 [Compound 83, 3-[2-(2,4-dimethoxypyridin-3-yl)-1-methylpyrrolo[2,3-c]pyridin-5-yl]-1-[2-(4-ethylpiperazin-1-yl)ethyl]urea formic acid]",160 nM,106 nM,230 nM,> 10000 nM
"COc1cccc(OC)c1-c1cc2cc(NC(=O)NCCN3CCNCC3)ncc2n1C [Compound 81, 3-[2-(2,6-dimethoxyphenyl)-1-methylpyrrolo[2,3-c]pyridin-5-yl]-1-[2-(piperazin-1-yl)ethyl]urea]",40.4 nM,17.2 nM,23.5 nM,> 10000 nM
"COc1ncnc(OC)c1-c1cc2cc(NC(=O)[C@@H]3C[C@@H]3F)ncc2[nH]1 [Compound 99, (1S,2S)-N-(2-(4,6-dimethoxypyrimidin-5-yl)-1H-pyrrolo[2,3-c]pyridin-5-yl)-2-fluorocyclopropane-1-carboxamide]",396 nM,111 nM,> 10000 nM,> 10000 nM
"COc1ncc(F)c(OC)c1-c1cc2cc(NC(=O)[C@@H]3C[C@H]3CN3CCN(C)CC3)ncc2n1C (single isomer, unassigned) [Compound 129]",85.5 nM,33.4 nM,34.6 nM,> 10000 nM
"COc1ccccc1-c1cc2cc(NC(=O)C3CC3)ncc2n1C [Compound 2, N-(2-(2-methoxyphenyl)-1-methyl-1H-pyrrolo[2,3-c]pyridin-5-yl)cyclopropanecarboxamide]",109 nM,25.4 nM,17.7 nM,202 nM
"COc1ccccc1-c1c(C#N)c2cc(NC(=O)C3CC3)ncc2n1C [Compound 47, N-[3-cyano-2-(2-methoxyphenyl)-1-methylpyrrolo[2,3-c]pyridin-5-yl]cyclopropanecarboxamide]",1360 nM,244 nM,548 nM,> 10000 nM
"COc1ccnc(OC)c1-c1cc2cc(NC(=O)[C@@H]3C[C@H]3CN3CCN(C)CC3)ncc2n1C (single isomer, unassigned) [Compound 121]",99.1 nM,88.8 nM,87.9 nM,> 10000 nM
"Cc1c(O)cccc1-c1cc2cc(NC(=O)C3CC3)ncc2n1C [Compound 7, N-[2-(3-hydroxy-2-methylphenyl)-1-methylpyrrolo[2,3-c]pyridin-5-yl]cyclopropanecarboxamide]",37.8 nM,9.22 nM,6.59 nM,60.9 nM
"COc1ncccc1-c1c(C)c2cnc(NC(=O)[C@@H]3C[C@@H]3F)cc2n1C [Compound 56, (1S,2S)-2-fluoro-N-[2-(2-methoxypyridin-3-yl)-1,3-dimethylpyrrolo[3,2-c]pyridin-6-yl]cyclopropane-1-carboxamide]",240 nM,198 nM,141 nM,6200 nM

# Second part, the compound after the results:
IC50 (K562 cells),IC50 (ABL1),IC50 (ABL1 (T315I)),IC50 (HL60 cells),Compound
736 nM,6.32 nM,12.4 nM,> 10000 nM,"COc1nc(O)nc(OC)c1-c1cc2cc(NC(=O)[C@@H]3C[C@@H]3F)ncc2n1C [Compound 108, (1S,2S)-2-fluoro-N-(2-(2-hydroxy-4,6-dimethoxypyrimidin-5-yl)-1-methyl-1H-pyrrolo[2,3-c]pyridin-5-yl)cyclopropane-1-carboxamide]"
289 nM,74.9 nM,299 nM,9800 nM,"CCOc1ncc(F)cc1-c1cc2cc(NC(=O)[C@@H]3C[C@@H]3F)ncc2n1C [Compound 143, (1S,2S)-N-[2-(2-ethoxy-5-fluoropyridin-3-yl)-1-methylpyrrolo[2,3-c]pyridin-5-yl]-2-fluorocyclopropane-1-carboxamide]"
16.5 nM,4.33 nM,147 nM,1710 nM,"COc1ncnc(OC2CC2)c1-c1cc2cc(NC(=O)[C@@H]3C[C@@H]3F)ncc2n1C [Compound 85, (1S,2S)-N-[2-(4-cyclopropoxy-6-methoxypyrimidin-5-yl)-1-methylpyrrolo[2,3-c]pyridin-5-yl]-2-fluorocyclopropane-1-carboxamide]"
117 nM,53.4 nM,52.8 nM,> 10000 nM,"COc1ccnc(OC)c1-c1cc2cc(NC(=O)[C@@H]3C[C@H]3CN(C)C)ncc2n1C (single isomer, unassigned) [Compound 122]"
59.3 nM,18.6 nM,17.5 nM,1690 nM,"CCc1ccnc(OC)c1-c1cc2cc(NC(=O)[C@@H]3C[C@@H]3F)ncc2n1C [Compound 142, (1S,2S)-N-[2-(4-ethyl-2-methoxypyridin-3-yl)-1-methylpyrrolo[2,3-c]pyridin-5-yl]-2-fluorocyclopropane-1-carboxamide]"
193 nM,87.4 nM,316 nM,1030 nM,"COc1cc2scnc2cc1-c1cc2cc(NC(=O)[C@@H]3C[C@@H]3F)ncc2n1C [Compound 70, (1S,2S)-2-fluoro-N-[2-(6-methoxy-1,3-benzothiazol-5-yl)-1-methylpyrrolo[2,3-c]pyridin-5-yl]cyclopropane-1-carboxamide]"
207 nM,126 nM,513 nM,5280 nM,"COc1ncc(C#N)cc1-c1cc2cc(NC(=O)[C@@H]3C[C@@H]3F)ncc2n1C [Compound 67, (1S,2S)-N-[2-(5-cyano-2-methoxypyridin-3-yl)-1-methylpyrrolo[2,3-c]pyridin-5-yl]-2-fluorocyclopropane-1-carboxamide]"
208 nM,40.8 nM,124 nM,3840 nM,"COc1ncccc1-c1cc2cc(NC(=O)[C@H]3C[C@H]3F)ncc2n1C [Compound 34, (1R,2R)-2-fluoro-N-[2-(2-methoxypyridin-3-yl)-1-methylpyrrolo[2,3-c]pyridin-5-yl]cyclopropane-1-carboxamide]"
44.7 nM,19.6 nM,30.2 nM,59.6 nM,"COc1cc2[nH]ncc2cc1-c1cc2cc(NC(=O)[C@@H]3C[C@@H]3F)ncc2n1C [Compound 74, (1S,2S)-2-fluoro-N-[2-(6-methoxy-1H-indazol-5-yl)-1-methylpyrrolo[2,3-c]pyridin-5-yl]cyclopropane-1-carboxamide]"
166 nM,409 nM,459 nM,5150 nM,"[2H]C([2H])([2H])Oc1ncc(F)cc1-c1cc2cc(NC(=O)[C@@H]3C[C@@H]3F)ncc2n1C([2H])([2H])[2H] [Compound 88, (1S,2S)-2-fluoro-N-(2-(5-fluoro-2-(methoxy-d3)pyridin-3-yl)-1-(methyl-d3)-1H-pyrrolo[2,3-c]pyridin-5-yl)cyclopropane-1-carboxamide]"
120 nM,40.2 nM,40.7 nM,1460 nM,"COc1nccc(C)c1-c1cc2cc(NC(=O)[C@@H]3C[C@@H]3F)ncc2n1C [Compound 59, (1S,2S)-2-fluoro-N-[2-(2-methoxy-4-methylpyridin-3-yl)-1-methylpyrrolo[2,3-c]pyridin-5-yl]cyclopropane-1-carboxamide]"
141 nM,43.3 nM,662 nM,4180 nM,"Cn1c(-c2ccncc2OC2CC2)cc2cc(NC(=O)[C@@H]3C[C@@H]3F)ncc21 [Compound 117, (1S,2S)-N-[2-(3-cyclopropoxypyridin-4-yl)-1-methylpyrrolo[2,3-c]pyridin-5-yl]-2-fluorocyclopropane-1-carboxamide]"
718 nM,191 nM,193 nM,6490 nM,"COc1ncc(F)cc1-c1c(C)c2cc(NC(=O)[C@@H]3C[C@@H]3F)ncc2n1C [Compound 60, (1S,2S)-2-fluoro-N-[2-(5-fluoro-2-methoxypyridin-3-yl)-1,3-dimethylpyrrolo[2,3-c]pyridin-5-yl]cyclopropane-1-carboxamide]"
256 nM,66.9 nM,1190 nM,9310 nM,"Cn1c(-c2cnccc2OC2CC2)cc2cc(NC(=O)[C@@H]3C[C@@H]3F)ncc21 [Compound 116, (1S,2S)-N-[2-(4-cyclopropoxypyridin-3-yl)-1-methylpyrrolo[2,3-c]pyridin-5-yl]-2-fluorocyclopropane-1-carboxamide]"
